Results reported in US10844023B2 (Washington University, priority 2017, dated 2020).

Tested on: Mfn2 null MEFs
Experiment: Mitochondrial elongation (aspect ratio) fusogenicity assay
Format: cell-based, mouse
Design: % long compare to B: dose or concentration left out as unconfirmed
Details: for % long compare to B: mitochondrial elongation relative to Cpd B (B01 = 100), compound overnight as printed (FIG. 48); for Fusogenicity Rank: rank order of aspect ratio among 44 soluble library compounds
From the text: A cultured murine embryonic fibroblast assay system was used in which mitochondrial elongation (an increase in aspect ratio) reflects enhanced mitochondrial fusion.
A pharmacophore model was generated based on the interactions of HR1 and HR2 domains in the calculated structural model of Mfn2 in the closed conformation. The key features included hydrophobic interactions involving Mfn2 HR1: Val372 and Met376, and aromatic interactions and hydrogen bonding involving Mfn2 HR1 His380. […] A library comprising ˜14 million commercially available compounds was prepared in silico and evaluated using PHASE to fit these criteria. Top ranked hits were clustered, and filtered based on pharmacological properties using Qikprop. The top 55 (see TABLE 4) commercially available small molecules conforming to the model were selected for functional screening and purchased in 1 mg aliquots. […] Images were acquired by confocal microscopy. Each compound was scored for fusogenicity (see e.g., FIG. 24A) and % cell death (see e.g., FIG. 24B).
Cells were excited with 408 nm (Hoechst), […] (MitoTracker Green and Calcein AM, GFP), or 637 nm (TMRE, MitoTracker Orange, Ethidium homodimer-1, and AF594-Dextran) laser diodes. For mitochondrial elongation studies mitochondrial aspect ratio (long axis/short axis) was calculated using automated edge detection and Image J software. Mitochondrial depolarization was calculated as % of green mitochondria visualized on MitoTracker Green and TMRE merged images, expressed as green/(green+yellow mitochondria)×100.

| SMILES | % long compare to B (Mfn2 null MEFs) [%] | Aspect ratio (MEAN ± SEM) (Mfn2 null MEFs, overnight, treatment with 1 μM compound (footnote)) | Fusogenicity Rank |
| --- | --- | --- | --- |
| NC(=O)c1c(NC(=O)CSc2nnc(-c3ccccc3)n2-c2ccccc2)sc2c1CCCC2 [1-G2, 2-{2-[(diphenyl-4H-1,2,4-triazol-3-yl)sulfanyl]acetamido}-4,5,6,7-tetrahydro-1-benzothiophene-3-carboxamide] | 20 |  |  |
| CC(Sc1nnc(C2CC2)n1-c1ccccc1)C(=O)Nc1sc2c(c1C#N)CCCCC2 (stereo not shown) [1-G5, N-{3-cyano-4H,5H,6H,7H,8H-cyclohepta[b]thiophen-2-yl}-2-[(5-cyclopropyl-4-phenyl-4H-1,2,4-triazol-3-yl)sulfanyl]propana-mide] | 7 |  |  |
| CC(Sc1nnc(Cc2cccs2)n1C1CC1)C(=O)Nc1sc2c(c1C(N)=O)CCC2 (stereo not shown) [1-G6, 2-[2-({4-cyclopropyl-5-[(thiophen-2-yl)methyl]-4H-1,2,4-triazol-3-yl}sulfanyl)propanamido]-4H,5H,6H-cyclopenta[b]thio-phene-3-carboxamide] | 9 |  |  |
| CC(Sc1nccn1Cc1ccccc1)C(=O)Nc1sc2c(c1C(N)=O)CCC2 (stereo not shown) [1-G7, 2-{2-[(1-benzyl-1H-imidazol-2-yl)sulfanyl]propanamido}-4H,5H,6H-cyclopenta[b]thio-phene-3-carboxamide] | 3 |  |  |
| CC(Sc1nncn1-c1ccccc1)C(=O)Nc1sc2c(c1C(N)=O)CCC2 (stereo not shown) [1-G8, 2-{2-[(4-phenyl-4H-1,2,4-triazol-3-yl)sulfanyl]propanamido}-4H,5H,6H-cyclopenta[b]thio-phene-3-carboxamide] | 14 |  |  |
| Cc1nnc(SCC(=O)Nc2sc3c(c2C(N)=O)CCC3)n1-c1ccccc1 [1-H3, 2-{2-[(5-methyl-4-phenyl-4H-1,2,4-triazol-3-yl)sulfanyl]acet-amido}-4H,5H,6H-cyclo-penta[b]thiophene-3-carboxamide] | 10 |  |  |
| NC(=O)c1c(NC(=O)CSc2nnc(-c3ccncc3)n2-c2ccc(F)cc2)sc2c1CCC2 [1-H5, 2-(2-{[4-(4-fluorophenyl)-5-(pyridin-4-yl)-4H-1,2,4-triazol-3-yl]sulfanyl]acetamido)-4H,5H,6H-cyclopenta[b]thio-phene-3-carboxamide] | 23 |  |  |
| CC(Sc1nnc(Cc2ccccc2)n1C)C(=O)Nc1sc2c(c1C(N)=O)CCC2 (stereo not shown) [1-H6, 2-{2-[(5-benzyl-4-methyl-4H-1,2,4-triazol-3-yl)sulfanyl]propanamido}-4H.5H.6H-cyclopenta[b]-thiophene-3-carboxamide] | 8 |  |  |
| Cn1c(Cc2ccccc2)nnc1SCC(=O)Nc1sc2c(c1C(N)=O)CCC2 [1-H7, 2-{2-[(5-benzyl-4-methyl-4H-1,2,4-triazol-3-yl)sulfanyl]-acetamido}-4H,5H,6H-cyclopenta[b]thiophene-3-carboxamide] | 6 |  |  |
| CC(Sc1nnc(-c2ccccc2)n1-c1ccccc1)C(=O)Nc1sc2c(c1C(N)=O)CCC2 (stereo not shown) [1-H8, 2-{2-[(diphenyl-4H-1,2,4-triazol-3-yl)sulfanyl]propan-amido}-4H,5H,6H-cyclo-penta[b]thiophene-3-carboxamide] | −4 |  |  |
| O=C(NCCSCc1ccccc1)NC1CCCC1 [1-H9, 1-[2-(benzylsulfanyl)ethyl]-3-cyclopentylurea] | 29 |  |  |
| NC(=O)c1c(NC(=O)CSc2nnc(C3CC3)n2Cc2ccccc2)sc2c1CCCC2 [1-H11, 2-{2-[(4-benzyl-5-cyclopropyl-4H-1,2,4-triazol-3-yl)-sulfanyl]acetamido}-4,5,6,7-tetrahydro-1-benzothiophene-3-carboxamide] | 15 |  |  |
| Cn1c(CC(=O)Nc2ccccc2)nnc1SCC(=O)Nc1sc2c(c1C(=O)NCc1ccccc1)CCCC2 [2-A1, N-benzyl-2-[2-({4-methyl-5-[(phenylcarbamoyl)methyl]-4H-1,2,4-triazol-3-yl}sulfanyl)acetamido]-4,5,6,7-tetrahydro-1-benzothiophene-3-carboxamide] | 26 |  |  |
| CCn1c(CCc2ccccc2)nnc1SCC(=O)Nc1sc2c(c1C(N)=O)CCC(C)C2 (stereo not shown) [2-A4, 2-(2-{[4-ethyl-5-(2-phenylethyl)-4H-1,2,4-triazol-3-yl]sulfanyl}acetamido)-6-methyl-4,5,6,7-tetrahydro-1-benzothiophene-3-carboxamide] | 3 |  |  |
| Cc1nnc(SCC(=O)Nc2sc3c(c2C(N)=O)CCC3)n1C [2-A5, 2-{2-[(dimethyl-4H-1,2,4-triazol-3-yl)sulfanyl]acetamido}-4H,5H,6H-cyclopenta[b]thio-phene-3-carboxamide] | 2 |  |  |
| O=C(Nc1cc(CSCCOC(=O)C2C3CCCCC32)ccn1)C1C2CCCCC21 (stereo not shown) [2-{[(2-{bicyclo[4.1.0]heptane-7-amido}pyridin-4-yl)methyl]sulfanyl}ethyl bicyclo[4.1.0]heptane-7-carboxylate] |  | 4.8 ± 1.0 | 10 |
| CC(Sc1nnc(N2CCOCC2)n1Cc1ccccc1)C(=O)Nc1ccc2c(c1)OCO2 (stereo not shown) [A01, N-(2H-1,3-benzodioxol-5-yl)-2-{[4-benzyl-5-(morpholin-4-yl)-4H-1,2,4-triazol-3-yl]sulfanyl)propana-mide] | −14 |  |  |
| O=C(NCCCCc1ccccc1)Nc1ccc(F)cc1 [A2, 3-(4-fluorophenyl)-1-(4-phenylbutyl)urea] | −4 |  |  |

| SMILES | % long compare to B (Mfn2 null MEFs) [%] | Aspect ratio (MEAN ± SEM) (Mfn2 null MEFs, overnight, treatment with 1 μM compound (footnote)) | Fusogenicity Rank |
| --- | --- | --- | --- |
| Cc1cccc(NC(=O)NCCCCc2ccccc2)c1 [A3, 3-(3-methylphenyl)-1-(4-phenylbutyl)urea] | 32 |  |  |
| Cc1ccc(NC(=O)NCCCCc2ccccc2)cc1 [A4, 3-(4-methylphenyl)-1-(4-phenylbutyl)urea] | 75 |  |  |
| CC(Sc1ccc(Br)cc1)C(=O)Nc1ccc2c(c1)OCCO2 (stereo not shown) [A05, 2-[(4-bromophenyl)sulfanyl]-N-(2,3-dihydro-1,4-benzodioxin-6-yl)propanamide] | −2 |  |  |
| Cc1ccccc1NC(=O)NCCCCc1ccccc1 [A5, 3-(2-methylphenyl)-1-(4-phenylbutyl)urea] | 7 |  |  |
| Cc1ccc2c(c1)SC(C(=O)NCc1ccc(N3CCCN(C)CC3)nc1)C2 (stereo not shown) [A07, 6-methyl-N-{[6-(4-methyl-1,4-diazepan-1-yl)pyridin-3-yl]methyl}-2,3-dihydro-1-benzothiophene-2-carboxamide] | 14 |  |  |
| CC(Sc1nc(CN2CCOCC2)nc2ccccc12)C(=O)Nc1cccc(C(F)(F)F)c1 (stereo not shown) [A08, 2-({2-[(morpholin-4-yl)methyl]quinazolin-4-yl}sulfanyl)-N-[3-(trifluoromethyl)-phenyl]propanamide] | 47 |  |  |
| CC(Sc1nnc(N2CCOCC2)n1Cc1ccccc1)C(=O)Nc1ccc2c(c1)OCCO2 (stereo not shown) [A09, 2-{[4-benzyl-5-(morpholin-4-yl)-4H-1,2,4-triazol-3-yl]sulfanyl}-N-(2,3-dihydro-1,4-benzodioxin-6-yl)propanamide] | 55 |  |  |
| CC1CCCCC1NC(=O)NCCSCc1ccccc1 (stereo not shown) [A10, 1-[2-(benzylsulfanyl)ethyl]-3-(2-methylcyclohexyl)urea] | 71 |  | 4 |
| Cc1ccc(-n2nnnc2SC(C)c2nc(-c3nnc[nH]3)no2)cc1 (stereo not shown) [A11, 1-(4-methylphenyl)-5-({1-[3-(4H-1,2,4-triazol-3-yl)-1,2,4-oxadiazol-5-yl]ethyl}sulfanyl)-1H-1,2,3,4-tetrazole] | 4 |  |  |
| NC(=O)c1c(NC(=O)CSc2ccccc2)sc2c1CCC2 [B2, 2-[2-(phenylsulfanyl)acetamido]-4H,5H,6H-cyclopenta[b]thiophene-3-carboxamide] | 12 |  |  |
| CC(Sc1nnc(N2CCOCC2)n1Cc1ccccc1)C(=O)Nc1ccc2[nH]c(=O)[nH]c2c1 (stereo not shown) [B03, 2-{[4-benzyl-5-(morpholin-4-yl)-4H-1,2,4-triazol-3-yl]sulfanyl}-N-(2-oxo-2,3-dihydro-1H-1,3-benzodiazol-5-yl)propanamide] | 39 |  |  |
| S=C(NCCSCc1ccco1)NC1CC2CCC1C2 (stereo not shown) [B04, 1-{bicyclo[2.2.1]heptan-2-yl}-3-(2-{[(furan-2-yl)methyl]sulfanyl}ethyl)thiourea] | 9 |  |  |
| CC(Sc1nnc(C2CC2)n1Cc1ccccc1)C(=O)Nc1sccc1C(N)=O (stereo not shown) [B4, 2-{2-[(4-benzyl-5-cyclopropyl-4H-1,2,4-triazol-3-yl)sulfanyl]propanamido}thiophene-3-carboxamide] | 4 |  |  |
| CC(C)(C)NC(=O)NC(=O)COC(=O)CSCc1nc2scc(-c3ccccc3)c2c(=O)[nH]1 [B07, 2-[(tert-butylcarbamoyl)amino]-2-oxoethyl 2-[({4-oxo-5-phenyl-3H,4H-thieno[2,3-d]pyrimidin-2-yl}methyl)sulfanyl] acetate] | 64 |  |  |
| Cc1ccc(-c2noc(CSCCCC(=O)Nc3c(C)cccc3C)n2)cc1F [B08, N-(2,6-dimethylphenyl)-4-({[3-(3-fluoro-4-methylphenyl)-1,2,4-oxadiazol-5-yl]methyl}sulfanyl)-butanamide] | 12 |  |  |
| O=C(NCCSCc1ccc(Br)s1)C1CCCN(C(=O)c2cccs2)C1 (stereo not shown) [B09, N-(2-{[(5-bromothiophen-2-yl)methyl]sulfanyl}-ethyl)-1-(thiophene-2-carbonyl)piperidine-3-carboxamide] | 36 |  |  |
| Cc1cccc(C)c1NC(=O)CCCSCc1ncc(C(C)C)o1 [B10, N-(2,6-dimethylphenyl)-4-({[5-(propan-2-yl)-1,3-oxazol-2-yl]methyl}sulfanyl)-butanamide] | 6 |  |  |
